{"source": "ChEMBL document CHEMBL5236595", "about": "“JDQ443, a Structurally Novel, Pyrazole-Based, Covalent Inhibitor of KRASG12C for the Treatment of Solid Tumors” (J Med Chem, 2022)", "key": {"[1]": {"test_system": "GTPase KRas (Homo sapiens), P01116 [G12C]", "assay": "Displacement of [acrylamide-2,3-3H2]-N-(3-fluoro-4-(2-methyl-3-(5-methyl-1H- indazole-4-yl)-1H-pyrrolo[ 2,3-b]pyridin-1-yl)-phenyl from KRAS G12C mutant (unknown origin) assessed as ratio of Kinact/Ki by competitive scintillation proximity assay"}, "[2]": {"assay": "Aqueous solubility of compound in pH 6.8", "assay_type": "physicochemical", "settings": "aqueous medium"}, "[3]": {"assay": "Drug concentration in human MIA PaCa-2 cells xenografted mouse blood at 100 mg/kg, po after 40 mins", "assay_type": "ADME, organism-based", "settings": "whole blood, read-out: Drug uptake"}, "[4]": {"assay": "Lipophilicity, logD of compound at pH 7.4", "assay_type": "physicochemical", "settings": "buffer"}, "[5]": {"test_system": "GTPase KRas (Homo sapiens), P01116 [G12C]", "assay": "In vivo target occupancy at KRAS G12C mutant in human MIA PaCa-2 cells xenografted mouse assessed as decrease in free KRAS G12C level at 100 mg/kg, po after 24 hrs", "assay_type": "functional, organism-based"}, "[6]": {"target": "GTPase KRas (Homo sapiens, UniProt P01116, G12C)", "assay": "Inhibition of KRAS G12C mutant in human NCI-H358 cells assessed as reduction in ERK phosphorylation incubated for 6 hrs by MSD assay", "assay_type": "cell-based"}, "[7]": {"assay": "Half life in human MIA PaCa-2 cells xenografted mouse at 100 mg/kg, po", "assay_type": "ADME, organism-based", "settings": "in vivo"}, "[8]": {"test_system": "GTPase KRas (Homo sapiens), P01116 [G12C]", "assay": "In vivo target occupancy at KRAS G12C mutant in human MIA PaCa-2 cells xenografted mouse assessed as decrease in free KRAS G12C level at 100 mg/kg, po after 3 hrs", "assay_type": "functional, organism-based"}, "[9]": {"assay": "Apparent permeability across apical to basolateral side in MDCK-MDR1 cells at 10 uM after 2 hrs by LC-MS/MS analysis", "assay_type": "ADME, cell-based, Canis lupus familiaris", "settings": "dog"}, "[10]": {"assay": "AUC in human MIA PaCa-2 cells xenografted mouse at 30 mg/kg, po", "assay_type": "ADME, organism-based", "set-up": "dose 30 mg/kg, route po", "settings": "in vivo"}, "[11]": {"assay": "Aqueous solubility of compound in pH 4", "assay_type": "physicochemical", "settings": "aqueous medium"}, "[12]": {"assay": "Cmax in human MIA PaCa-2 cells xenografted mouse at 30 mg/kg, po", "assay_type": "ADME, organism-based", "set-up": "dose 30 mg/kg, route po", "settings": "in vivo"}, "[13]": {"assay": "Cysteine reactivity in pH 7.4 phosphate buffer assessed as compound half life at 2 uM in presence of GSH"}}, "note": "pIC50: −log10 of the molar value."}
{"smiles": "C=CC(=O)N1CC2(CC(n3nc(C4CCCCC4)c(-c4c(C)ccc5[nH]ncc45)c3C)C2)C1", "values": [{"measurement": "Ratio", "setting": "[1]", "result": 0.3, "unit": "mM⁻¹ s⁻¹"}]}
{"smiles": "C=CC(=O)N1CC2(CC(n3nc(-c4ccccc4)c(-c4c(Cl)c(C)cc5[nH]ncc45)c3C)C2)C1", "values": [{"measurement": "solubility", "setting": "[2]", "result": 10, "unit": "µM"}, {"measurement": "Ratio", "setting": "[1]", "result": 60, "unit": "mM⁻¹ s⁻¹"}, {"measurement": "concentration at 40 min", "setting": "[3]", "result": 4000, "unit": "nM"}, {"measurement": "logD", "setting": "[4]", "result": 4.9}, {"measurement": "Occ", "setting": "[5]", "result": 40, "unit": "%"}, {"measurement": "pIC50", "setting": "[6]", "result": 7.70}, {"measurement": "half-life", "setting": "[7]", "result": 2.5, "unit": "h"}, {"measurement": "Occ", "setting": "[8]", "result": 20, "unit": "%"}]}
{"smiles": "C=CC(=O)Nc1ccc(-n2nc(C(C)C)c(-c3c(C)ccc4[nH]ncc34)c2C)cc1", "values": [{"measurement": "Ratio", "setting": "[1]", "result": 0.6, "unit": "mM⁻¹ s⁻¹"}]}
{"smiles": "C=CC(=O)N1CC2(CC(n3nc(-c4ccc5c(cnn5CCN(C)C)c4)c(-c4c(Cl)c(C)cc5[nH]ncc45)c3C)C2)C1", "values": [{"measurement": "Ratio", "setting": "[1]", "result": 150, "unit": "mM⁻¹ s⁻¹"}, {"measurement": "logD", "setting": "[4]", "result": 3.7}, {"measurement": "Papp A→B at 2 h, 10 µM", "setting": "[9]", "result": 0.9, "unit": "×10⁻⁶ cm/s"}, {"measurement": "AUC", "setting": "[10]", "result": 0.5, "unit": "µM·h"}, {"measurement": "pIC50", "setting": "[6]", "result": 7.52}, {"measurement": "solubility", "setting": "[11]", "result": 850, "unit": "µM"}, {"measurement": "Cmax", "setting": "[12]", "result": 300, "unit": "nM"}]}
{"smiles": "C=CC(=O)Nc1ccc(-n2nc(C(C)C)c(-c3c(C)ccc4[nH]ncc34)c2C)c(C)c1", "values": [{"measurement": "Ratio", "setting": "[1]", "result": 1.7, "unit": "mM⁻¹ s⁻¹"}, {"measurement": "T1/2", "setting": "[13]", "result": 1.78, "unit": "h"}, {"measurement": "pIC50", "setting": "[6]", "result": 5.82}]}
{"smiles": "C=CC(=O)N1CC2(CC(n3nc(-c4ccccn4)c(-c4c(Cl)c(C)cc5[nH]ncc45)c3C)C2)C1", "values": [{"measurement": "Ratio", "setting": "[1]", "result": 7, "unit": "mM⁻¹ s⁻¹"}]}
